# Experimental data taken from patent publication US20060009493A1, “Indolinone hydrazides as c-Met inhibitors” (Sugen, Inc., priority 2003, published 2006).
# pIC50: −log10 of the molar value.
# Target: T1, GST fusion protein containing the Met kinase domain (Homo sapiens, UniProt P08581)
# T1 construct: Purified GST fusion protein containing the Met kinase domain, Sugen, Inc
# Experiment: MET Transphosphorylation Assay (ELISA, poly(Glu,Tyr) 4:1 substrate)
# Format: biochemical
# Settings: met transphosphorylation of poly(glutamic acid:tyrosine 4:1) substrate; two values in a cell separated by '/'
# Protocol: MET Transphosphorylation Assay
# This assay is used to measure phosphotyrosine levels on a poly(glutamic acid:tyrosine (4:1)) substrate as a means for identifying agonists/antagonists of met transphosphorylation of the substrate.
# • 1. […] PBS, Gibco Catalog # 450-1300EB • 4. 50 mM HEPES • 5. […] Purified GST fusion protein containing the Met kinase domain, Sugen, Inc. • 7. TBST Buffer. • 8. 10% aqueous (MilliQue H2O) DMSO. • 9. […] 2× Kinase Dilution Buffer: for 100 ml, mix 10 mL 1M HEPES at pH 7.5 with 0.4 mL 5% BSA/PBS, 0.2 mL 0.1 M sodium orthovanadate and 1 mL 5M sodium chloride in 88.4 mL dH2O. • 11. 4×ATP Reaction Mixture: for 10 mL, mix 0.4 mL 1 M manganese chloride and 0.02 mL 0.1 M ATP in […] dH2O. • 12. 4× Negative Controls Mixture: for 10 mL, mix 0.4 mL 1 M manganese chloride in 9.6 mL dH2O.
# 13. […] 500 mM EDTA. • 15. Antibody Dilution Buffer: for 100 mL, mix 10 mL 5% BSA/PBS, 0.5 mL 5% Carnation Instant Milk® in PBS and 0.1 mL 0.1 M sodium orthovanadate in 88.4 mL TBST. • 16. Rabbit polyclonal antophosphotyrosine antibody, Sugen, Inc. • 17. Goat anti-rabbit horseradish peroxidase conjugated antibody, Biosource, Inc. • 18. ABTS Solution: for 1 L, mix 19.21 g citric acid, 35.49 g Na2HPO4 and 500 mg ABTS with sufficient dH2O to make 1 L. • 19. ABTS/H2O2: mix 15 mL ABST solution with 2 μL H2O2 five minutes before use. • 20. 0.2 M HCl Procedure: • 1. Coat ELISA plates with 2 μg Poly(Glu-Tyr) in 100 μL PBS, store overnight at 4° C. • 2. Block plate with 150 μL of 5% BSA/PBS for 60 min. • 3. Wash plate twice with PBS, once with 50 mM Hepes buffer pH 7.4. • 4. Add 50 μl of the diluted kinase to all wells. (Purified kinase is diluted with Kinase Dilution Buffer. Final concentration should be 10 ng/well.) • 5. Add 25 μL of the test compound (in 4% DMSO) or DMSO alone (4% in dH2O) for controls to plate. • 6. Incubate the kinase/compound mixture for 15 minutes. • 7. Add 25 μL of 40 mM MnCl2 to the negative control wells. • 8. Add 25 μL ATP/MnCl2 mixture to the all other wells (except the negative controls). Incubate for 5 min. • 9. Add 25 μL 500 mM EDTA to stop reaction. • 10. Wash plate 3× with TBST. • 11. Add 100 μL rabbit polyclonal anti-Ptyr diluted 1:10,000 in Antibody Dilution Buffer to each well. Incubate, with shaking, at room temperature for one hour. • 12. Wash plate 3× with TBST. • 13. […] Add 100 μL per well and incubate at room temperature, with shaking, for one hour. • 14. Wash plate 1× with PBS. • 15. Add 100 μl of ABTS/H2O2 solution to each well. • 16. If necessary, stop the development reaction with the addition of […] of 0.2M HCl per well. • 17.
# T1 sequence (P08581 1078-1345 limits assumed): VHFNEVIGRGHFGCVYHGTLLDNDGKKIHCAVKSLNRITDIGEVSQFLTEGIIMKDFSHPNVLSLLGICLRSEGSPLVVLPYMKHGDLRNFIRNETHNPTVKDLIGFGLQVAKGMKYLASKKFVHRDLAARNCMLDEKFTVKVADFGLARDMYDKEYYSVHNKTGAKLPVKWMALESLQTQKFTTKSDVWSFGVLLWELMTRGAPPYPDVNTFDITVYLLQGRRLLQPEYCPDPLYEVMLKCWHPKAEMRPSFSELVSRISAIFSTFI
row,Molecule,pIC50
1,"CC(C)C(C(=O)N/N=C1\C(=O)Nc2ccccc21)c1ccc(O)cc1 (stereo not drawn) [II-68, 2-(4-Hydroxy-phenyl)-3-methyl-butyric acid [(3Z)-2-oxo-1,2-dihydro-indol-3-ylidene)-hydrazide]",5.84
2,"Cc1ccc(C)c2c1NC(=O)/C2=N\NC(=O)Cc1ccc(O)nc1 [II-50, (6-Hydroxy-pyridin-3-yl)-acetic acid [(3Z)-4,7-dimethyl-2-oxo-1,2-dihydro-indol-3-ylidene]-hydrazide]",7.43
3,"O=C(Cc1cccc(Cl)c1)N/N=C1\C(=O)Nc2ccccc21 [II-14, (3-Chloro-phenyl)-acetic acid [(3Z)-2-oxo-1,2-dihydro-indol-3-ylidene]-hydrazide]",5.25
4,"O=C(Cc1ccncc1)N/N=C1\C(=O)Nc2ccccc21 [II-21, Pyridin-4-yl-acetic acid [(3Z)-2-oxo-1,2-dihydro-indol-3-ylidene]-hydrazide]",5.51
5,"COc1ccc(CCC(=O)N/N=C2\C(=O)Nc3c(Cl)ccc(Cl)c32)cc1 [II-86, 3-(4-Methoxy-phenyl)-propionic acid [(3Z)-4,7-dichloro-2-oxo-1,2-dihydro-indol-3-ylidene]-hydrazide]",5.70
6,"O=C(Cc1cc(O)[nH]n1)N/N=C1\C(=O)Nc2c(Cl)ccc(Cl)c21 [II-87, (5-Hydroxy-1H-pyrazol-3-yl)-acetic acid [(3Z)-4,7-dichloro-2-oxo-1,2-dihydro-indol-3-ylidene]-hydrazide]",6.20
7,"CCC(C(=O)N/N=C1\C(=O)Nc2c(Cl)ccc(Cl)c21)c1ccc(OC)cc1 (stereo not drawn) [II-79, 2-(4-Methoxy-phenyl)-butyric acid [(3Z)-4,7-dichloro-2-oxo-1,2-dihydro-indol-3-ylidene)-hydrazide]",6.82
8,"CC(C(=O)N/N=C1\C(=O)Nc2cccc(-c3cccc(F)c3)c21)c1ccc(O)cc1 (stereo not drawn) [Example I-16, 2-(4-Hydroxy-phenyl)-propionic acid [(3Z)-4-(3-fluoro-phenyl)-2-oxo-1,2-dihydro-indol-3-ylidene]-hydrazide]",6.85
9,"O=C(Cc1ccc(O)cc1)N/N=C1\C(=O)Nc2ccc([N+](=O)[O-])cc21 [II-62, (4-Hydroxy-phenyl)-acetic acid [(3Z)-5-nitro-2-oxo-1,2-dihydro-indol-3-ylidene]-hydrazide]",7.02
10,"CC(C(=O)N/N=C1\C(=O)Nc2ccc(C(=O)N3CCC(NC4CC4)CC3)c(Cl)c21)c1ccc(F)cc1 (stereo not drawn) [Example I-30, 2-(4-Fluoro-phenyl)-propionic acid [(3Z)-4-chloro-5-(4-cyclopropylamino-piperidine-1-carbonyl)-2-oxo-1,2-dihydro-indol-3-ylidene]-hydrazide]",6.89
11,"CC(C(=O)N/N=C1\C(=O)Nc2ccc(C(=O)NCCN3CCOCC3)c(Cl)c21)c1ccc(F)cc1 (stereo not drawn) [Example I-39, (3Z)-4-Chloro-3-{[2-(4-fluoro-phenyl)-propionyl]-hydrazono}-2-oxo-2,3-dihydro-1H-indole-5-carboxylic acid (2-morpholin-4-yl-ethyl)-amide]",6.96
12,"O=C(Cc1ccc(F)cc1)N/N=C1\C(=O)Nc2ccc(Cl)c(Cl)c21 [II-52, (4-Fluoro-phenyl)-acetic acid [(3Z)-4,5-dichloro-2-oxo-1,2-dihydro-indol-3-ylidene]-hydrazide]",6.68
13,"O=C(Cc1ccc2c(c1)OCO2)N/N=C1\C(=O)Nc2ccc(Br)cc21 [Example I-22, Benzo[1,3]dioxol-5-yl-acetic acid [(3Z)-5-bromo-2-oxo-1,2-dihydro-indol-3-ylidene]-hydrazide]",6.60
14,"Cc1cn(CC(=O)N/N=C2\C(=O)Nc3ccccc32)c(=O)[nH]c1=O [II-73, (5-Methyl-2,4-dioxo-3,4-dihydro-2H-pyrimidin-1-yl)-acetic acid [(3Z)-2-oxo-1,2-dihydro-indol-3-ylidene]-hydrazide]",< 4.70
15,"O=C(Cc1cnc(=O)[nH]c1)N/N=C1\C(=O)Nc2c(Cl)ccc(Cl)c21 [II-96, (2-Oxo-1,2-dihydro-pyrimidin-5-yl)-acetic acid [(3Z)-4,7-dichloro-2-oxo-1,2-dihydro-indol-3-ylidene]-hydrazide]",5.51
16,"Cc1cccc2c1/C(=N/NC(=O)Cc1ccc(O)cc1)C(=O)N2 [II-47, (4-Hydroxy-phenyl)-acetic acid [(3Z)-4-methyl-2-oxo-1,2-dihydro-indol-3-ylidene]-hydrazide]",7.66
17,"O=C1Nc2ccccc2/C1=N/NC(=O)C(O)c1ccc(O)cc1 (stereo not drawn) [Example I-3, Hydroxy-(4-hydroxy-phenyl)-acetic acid [(3Z)-2-oxo-1,2-dihydro-indol-3-ylidene]-hydrazide]",4.97
18,"COc1ccc(CC(=O)N/N=C2\C(=O)Nc3c(Cl)ccc(Cl)c32)cc1C [II-70, (4-Methoxy-3-methyl-phenyl)-acetic acid [(3Z)-4,7-dichloro-2-oxo-1,2-dihydro-indol-3-ylidene]-hydrazide]",< 4.70
19,O=C(Cc1ccc(OCCN2CCCC2)cc1)N/N=C1\C(=O)Nc2ccccc21 [Example I-1],4.98
20,"O=C(Cc1ccc2c(c1)OCO2)N/N=C1\C(=O)Nc2ccccc21 [Example I-23, Benzo[1,3]dioxol-5-yl-acetic acid [(3Z)-2-oxo-1,2-dihydro-indol-3-ylidene]-hydrazide]",6.82
21,"COc1ccc2c(c1Cl)/C(=N/NC(=O)C(C)c1ccc(O)cc1)C(=O)N2 (stereo not drawn) [II-99, 2-(4-Hydroxy-phenyl)-propionic acid [(3Z)-4-chloro-5-methoxy-2-oxo-1,2-dihydro-indol-3-ylidene)-hydrazide]",7.35
22,"O=C(Cc1ccc(O)cc1)N/N=C1\C(=O)Nc2ccc(S(=O)(=O)NCCN3CCOCC3)cc21 [Example I-26, (3Z)-3-{[2-(4-Hydroxy-phenyl)-acetyl]-hydrazono}-2-oxo-2,3-dihydro-1H-indole-5-sulfonic acid (2-morpholin-4-yl-ethyl)-amide]",7.11
23,"(3-Chloro-4-hydroxy-phenyl)-acetic acid [(3Z)-4,7-dimethyl-2-oxo-1,2-dihydro-indol-3-ylidene]-hydrazide [II-48]",7.70
24,"O=C1Nc2ccccc2/C1=N/NC(=O)C(F)(F)c1ccc(F)cc1 [Example I-32, Difluoro-(4-fluoro-phenyl)-acetic acid [(3Z)-2-oxo-1,2-dihydro-indol-3-ylidene]-hydrazide]",< 4.70
25,"N#Cc1cc(CC(=O)N/N=C2\C(=O)Nc3ccc(C(=O)O)c(Cl)c32)ccc1O [II-111, (3Z)-4-Chloro-3-{[2-(3-cyano-4-hydroxy-phenyl)-acetyl]-hydrazono}-2-oxo-2,3-dihydro-1H-indole-5-carboxylic acid]",5.48
26,"COc1cc(Cl)c2c(c1Cl)/C(=N/NC(=O)C(C)c1ccc(O)cc1)C(=O)N2 (stereo not drawn) [II-113, 2-(4-Hydroxy-phenyl)-propionic acid [(3Z)4,7-dichloro-5-methoxy-2-oxo-1,2-dihydro-indol-3-ylidene)-hydrazide]",7.33
27,"O=C(Cc1cc(=O)[nH]cn1)N/N=C1\C(=O)Nc2ccccc21 [II-88, (6-Oxo-1,6-dihydro-pyrimidin-4-yl)-acetic acid [(3Z)-2-oxo-1,2-dihydro-indol-3-ylidene]-hydrazide]",5.22
28,"CC(C(=O)N/N=C1\C(=O)Nc2ccc(C(=O)N3CCC(NC4CC4)CC3)c(Cl)c21)c1ccc(O)cc1 (stereo not drawn) [Example I-33, 2-(4-Hydroxy-phenyl)-propionic acid [(3Z)-4-chloro-5-(4-cyclopropylamino-piperidine-1-carbonyl)-2-oxo-1,2-dihydro-indol-3-ylidene]-hydrazide]",7.07
29,"O=C(Cc1ccccc1)N/N=C1\C(=O)Nc2ccccc21 [II-3, Phenyl-acetic acid [(3Z)-2-oxo-1,2-dihydro-indol-3-ylidene]-hydrazide]",5.18
30,"CC(=O)Nc1ccc(CC(=O)N/N=C2\C(=O)Nc3ccccc32)cc1 [Example I-4, N-[4-[(3Z)-2-Oxo-1,2-dihydro-indol-3-ylidene-hydrazinocarbonylmethyl]-phenyl]-acetamide]",< 4.70
